{"source": "PubChem BioAssay AID726", "about": "(The Scripps Research Institute Molecular Screening Center, 2007)", "note": "Calls of active or inactive are those of the source.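 How the source made its calls: active means EC50 at or below 10 µM, fitted or read by hand from inhibition at single concentrations; inactive means EC50 above 10 µM.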", "data": [{"molecular_target": "5-hydroxytryptamine receptor 1E (Homo sapiens) (UniProt P28566)", "sequence (P28566 whole entry, looked up)": "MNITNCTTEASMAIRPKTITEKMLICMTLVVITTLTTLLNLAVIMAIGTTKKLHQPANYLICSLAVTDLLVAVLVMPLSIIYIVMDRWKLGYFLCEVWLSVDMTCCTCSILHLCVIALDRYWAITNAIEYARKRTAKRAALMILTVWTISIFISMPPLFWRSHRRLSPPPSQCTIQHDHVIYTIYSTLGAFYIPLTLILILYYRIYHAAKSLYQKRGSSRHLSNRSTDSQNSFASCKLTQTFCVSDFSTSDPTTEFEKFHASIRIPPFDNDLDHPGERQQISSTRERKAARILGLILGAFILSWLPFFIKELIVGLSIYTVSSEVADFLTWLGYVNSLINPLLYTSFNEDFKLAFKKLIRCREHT", "experiment": "5-HT1E receptor agonist potency, dose response, cell-based (AID 726)", "details": "CHO 5-HT1E/Ga15 NFAT-bla, FRET reporter", "values": [{"smiles": "CCOC(=O)c1c(C)nc(-c2ccccc2)nc1NC(=O)CC", "EC50": "> 50000 nM (inactive)"}, {"smiles": "CCCCN(CC)Cc1ccc(CNC(=O)Nc2ccc(OC)cc2OC)o1", "EC50": "1830 nM"}, {"smiles": "CSc1nc2ccc(NC(=O)C3CCCO3)cc2s1", "note": "(centres undefined)", "EC50": "> 50000 nM (inactive)"}, {"smiles": "Cn1cc(/C(Cc2ccccc2)=N\\O)c2ccccc21", "EC50": "> 50000 nM (inactive)"}, {"smiles": "CCN1CC=C(c2c[nH]c3ccccc23)CC1", "EC50": "23.9 nM"}, {"smiles": "CCOC(=O)c1oc2ccccc2c1NC(=O)c1cc(OC)cc(OC)c1", "EC50": "> 50000 nM (inactive)"}, {"smiles": "CN(C)CCCn1c(NC(=O)C2CCCCC2)nc2ccccc21", "EC50": "469 nM"}, {"smiles": "CN1CCN(/C(=N\\O)c2nonc2N)CC1", "EC50": "1170 nM"}, {"smiles": "Cc1cccc(N2CCN(C(=O)Cc3c(C(=O)O)[nH]c4ccc(Cl)cc34)CC2)c1C", "EC50": "> 50000 nM (inactive)"}, {"smiles": "CCOC(=O)C1CCN(C(=O)Cc2c(C(=O)O)n(C)c3ccccc23)CC1", "EC50": "> 50000 nM (inactive)"}, {"smiles": "Cc1cc(C(C)(C)C)cc(C)c1CC1=NCCN1", "EC50": "87 nM"}, {"smiles": "CN1CCN2c3ccccc3Cc3ccccc3C2C1", "note": "(centres undefined)", "EC50": "37.8 nM"}, {"smiles": "C1=C(c2c[nH]c3ccccc23)CCNC1", "EC50": "15.7 nM"}, {"smiles": "CCOC(=O)C1=C(C)NC(=O)NC1c1ccc(OCC(=O)Nc2ccccc2)c(OC)c1", "note": "(centres undefined)", "EC50": "> 50000 nM (inactive)"}, {"smiles": "C[N+]1=C2CCCCCN2C(O)(c2ccccc2)C1", "note": "(centres undefined)", "EC50": "1330 nM"}, {"smiles": "CC1CN(c2nnnn2-c2ccccc2)CC(C)O1", "note": "(centres undefined)", "EC50": "> 50000 nM (inactive)"}, {"smiles": "CN1CC=C(c2c[nH]c3ccccc23)CC1", "EC50": "6.78 nM"}, {"smiles": "CCCCc1ccc2[nH]cc(CCN)c2c1", "EC50": "11.3 nM"}, {"smiles": "Cc1noc(C)c1COc1ccc(C(=O)OC(C)C(=O)Nc2ccc(N3CCOCC3)cc2)cc1", "note": "(centres undefined)", "EC50": "> 50000 nM (inactive)"}, {"smiles": "CN(C)CCOC(=O)c1cn(Cc2ccccc2)c2ccccc12", "EC50": "493 nM"}, {"smiles": "O=C(O)C1CCCCC1C(=O)NCCc1c[nH]c2ccccc12", "note": "(centres undefined)", "EC50": "765 nM"}, {"smiles": "Cn1c(-c2ccccc2)cnc1SCc1nc2ccccc2c(=O)[nH]1", "EC50": "> 50000 nM (inactive)"}, {"smiles": "Cc1cc(C(C)(C)C)c(O)c(C)c1CC1=NCCN1", "EC50": "99 nM"}, {"smiles": "Cc1c(CN2CCN(c3cccc(C(F)(F)F)c3)CC2)c(=O)n(-c2ccccc2)n1C", "EC50": "1840 nM"}, {"smiles": "CC(CCc1ccccc1)NC(=O)CSc1nc(N)cc(N)n1", "note": "(centres undefined)", "EC50": "> 50000 nM (inactive)"}, {"smiles": "CCc1nn(C(C)C(=O)NCCN2CCN(c3cccc(C)c3C)CC2)c(=O)c2cc3occc3n12", "note": "(centres undefined)", "EC50": "2320 nM"}, {"smiles": "COc1ccc(CN2CCN(c3ccccc3F)CC2)c(OC)c1", "EC50": "> 50000 nM (inactive)"}, {"smiles": "NCCc1c[nH]c2ccc(F)cc12", "EC50": "484 nM"}, {"smiles": "CCCCN(C)CCCNC(=O)Cn1c(=O)sc2ccccc21", "EC50": "3500 nM"}, {"smiles": "CCc1ccc(NC(=O)Cn2c(SC)nc3ccccc32)cc1", "EC50": "> 50000 nM (inactive)"}, {"smiles": "Cc1[nH]c2c(Cl)cccc2c1CCN", "EC50": "677 nM"}, {"smiles": "Cc1cccc(NC(=O)C2CCCN(C(=O)Nc3ccccc3)C2)c1C", "note": "(centres undefined)", "EC50": "> 50000 nM (inactive)"}, {"smiles": "COc1ccc(N(CC(=O)NC2CCCC2)C(=O)Cn2nnc(-c3ccc(C)cc3)n2)cc1OC", "EC50": "> 50000 nM (inactive)"}, {"smiles": "COC(=O)CC(=O)Cc1nc(N)nc(Nc2ccc(C)c(C)c2)n1", "EC50": "> 50000 nM (inactive)"}, {"smiles": "CCOC(=O)c1cc2ccc(OC(=O)c3ccco3)cc2oc1=O", "EC50": "7500 nM"}, {"smiles": "Cc1[nH]c2ccccc2c1C1=CCNCC1", "EC50": "194 nM"}, {"smiles": "c1ccc(N2CCN(Cc3cn4cccnc4n3)CC2)cc1", "EC50": "1070 nM"}, {"smiles": "CC(=O)Nc1ccc(S(=O)(=O)N(C)c2ccc(O)cc2)cc1", "EC50": "> 50000 nM (inactive)"}, {"smiles": "COc1cc(CN2CCN(c3cccc(C)c3C)CC2)cc(OC)c1O", "EC50": "> 50000 nM (inactive)"}, {"smiles": "c1ccc2sc(C3CCCNC3)nc2c1", "note": "(centres undefined)", "EC50": "186 nM"}, {"smiles": "CC[C@@H](CO)NC(=O)[C@@H]1C=C2c3cccc4c3c(cn4C)C[C@H]2N(C)C1", "EC50": "37.5 nM"}, {"smiles": "O=C(NCc1ccccc1)NC1(C(=O)N2CCCC2)CCCCC1", "EC50": "> 50000 nM (inactive)"}, {"smiles": "O=C(Nc1cccc(-c2cn3ccsc3n2)c1)c1ccccc1", "EC50": "> 50000 nM (inactive)"}, {"smiles": "CCOC(=O)C1CCN(C(c2cccnc2)c2c(NC(=O)c3ccco3)sc(C)c2C)CC1", "note": "(centres undefined)", "EC50": "> 50000 nM (inactive)"}, {"smiles": "O=C(COC(=O)CCC1CCCC1)Nc1ccc(Cl)cn1", "EC50": "> 50000 nM (inactive)"}, {"smiles": "CNCCc1c[nH]c2ccccc12", "EC50": "105 nM"}, {"smiles": "O=S(=O)(c1cccc(Cl)c1)N1CCCC1", "EC50": "> 50000 nM (inactive)"}, {"smiles": "Cc1[nH]c2c(C(F)(F)F)cccc2c1CCN", "EC50": "817 nM"}, {"smiles": "CCN(CC)c1nc(N2CCOCC2)c(C#N)c2c1CN(C)CC2", "EC50": "1750 nM"}]}]}
